Values quoted from earlier work in PMC8942822 (The Journal of Biological Chemistry, 2022).

Key:
[1] = molecular target: T1, SpaASLH (SLH domain trimer of S-layer protein SpaA, wild-type) (Paenibacillus alvei, UniProt C1JZ07)
T1 sequence (C1JZ07 21-193): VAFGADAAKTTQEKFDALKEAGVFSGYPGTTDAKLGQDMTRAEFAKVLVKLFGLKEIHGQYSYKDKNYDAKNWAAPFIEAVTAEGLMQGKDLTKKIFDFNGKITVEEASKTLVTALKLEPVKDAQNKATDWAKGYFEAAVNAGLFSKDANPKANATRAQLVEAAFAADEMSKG

SpaASLH/G109A = molecular target: T2, SpaASLH/G109A (Paenibacillus alvei, UniProt C1JZ07, G109A)
T2 sequence (C1JZ07 21-193 G109A): T1 sequence (C1JZ07 21-193)

SpaASLH/G46A/G109A = details: 20 °C, SpaASLH/G46A/G109A double mutant, previously published
[2] = ITC, 20 °C, SpaASLH wild-type, previously published
[3] = ITC, 20 °C, SpaASLH/G109A, previously published

KA [1, 2]	Kd [1, 2]	Stoichiometry [1, 2]	ΔG [1, 2]	ΔH [1, 2]	−TΔS [1, 2]	Decrease of ITC binding affinity, G109A mutant (G1 binding) vs wild-type (SpaASLH/G109A)	KA (SpaASLH/G109A; [3])	Kd (SpaASLH/G109A; [3])	Stoichiometry (SpaASLH/G109A; [3])	ΔG (SpaASLH/G109A; [3])	ΔH (SpaASLH/G109A; [3])	−TΔS (SpaASLH/G109A; [3])	Binding by ITC (SpaASLH/G46A/G109A)	Binding by ITC ([1]; ITC experiments with internal-repeat SCWP disaccharide)	SMILES
3.48 × 10^7 ± 0.36 M^−1	29 nM	0.91 ± 0.04	-10.06 ± 0.155 kcal/mol	-21 ± 3.733 kcal/mol	10.93 ± 3.826 kcal/mol	tenfold	4.48 × 10^6 ± 0.62 M^−1	226 nM	0.92 ± 0.04	-8.917 ± 0.0789 kcal/mol	-12.1 ± 1.74 kcal/mol	3.186 ± 1.67 kcal/mol	No binding		CO[C@@H]1O[C@@H]2CO[C@](C)(C(=O)O)O[C@H]2[C@H](O)[C@@H]1NC(C)=O [monosaccharide, 4,6-Pyr-β-D-ManNAcOMe]
														lack of corresponding measurable binding	CO[C@@H]1O[C@@H]2CO[C@](C)(C(=O)O)O[C@H]2[C@H](O[C@@H]2O[C@H](CO)[C@@H](O)[C@H](O)[C@H]2NC(C)=O)[C@@H]1NC(C)=O [internal disaccharide, β-D-GlcNAc-(1→3)-4,6-Pyr-β-D-ManNAcOMe]
